# According to ChEMBL document CHEMBL4811256, “Synthesis and evaluation of multi-target-directed ligands with BACE-1 inhibitory and Nrf2 agonist activities as potential agents against Alzheimer's disease” (Eur J Med Chem, 2021):
# Activity calls are given as the source filed them. The calls are words filed in the database; no cut-off is given here.
# Columns and labels:
# PC-12 [1] = test: Protection against 6-OHDA-induced apoptosis in rat PC-12 cells assessed as late apoptotic cells at 10 uM pretreated for 12 hrs followed by 6-OHDA challenge by annexin V FITC/propidium iodide staining based flow cytometry (reference value: 17.3 %); type: functional
# [2] = biological target: T1, Nuclear factor erythroid 2-related factor 2 (Mus musculus) (UniProt Q60795); test: Activation of Nrf2 in mouse BV-2 cells assessed as decrease in LPS-induced NO production pretreated with compound for 2 hrs followed by LPS stimulation and further incubated for 18 hrs by Griess reagent based assay; type: cell-based; conditions: filed as activator, dose 10.0 µM, time 20.0 hrs
# T1 sequence (whole entry): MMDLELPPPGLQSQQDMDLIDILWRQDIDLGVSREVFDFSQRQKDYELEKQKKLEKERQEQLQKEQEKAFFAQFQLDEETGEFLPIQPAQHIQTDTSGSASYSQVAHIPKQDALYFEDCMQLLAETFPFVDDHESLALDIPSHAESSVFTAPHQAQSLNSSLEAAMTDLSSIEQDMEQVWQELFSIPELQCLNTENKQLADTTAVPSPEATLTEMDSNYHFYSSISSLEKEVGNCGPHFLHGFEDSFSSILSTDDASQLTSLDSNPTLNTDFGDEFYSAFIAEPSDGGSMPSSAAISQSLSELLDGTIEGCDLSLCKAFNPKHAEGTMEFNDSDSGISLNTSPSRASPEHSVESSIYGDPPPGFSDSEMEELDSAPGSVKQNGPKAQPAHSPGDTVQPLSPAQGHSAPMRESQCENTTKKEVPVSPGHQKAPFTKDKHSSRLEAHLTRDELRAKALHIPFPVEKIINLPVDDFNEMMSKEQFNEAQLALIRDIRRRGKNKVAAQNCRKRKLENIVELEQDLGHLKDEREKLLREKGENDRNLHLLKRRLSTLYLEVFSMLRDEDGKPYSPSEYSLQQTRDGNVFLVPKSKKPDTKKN
# PC-12 [3] = test: Cytotoxicity against rat PC-12 cells at 25 uM incubated for 24 hrs by MTT assay; type: cell-based; conditions: pc-12, 24 h
# PC-12 [4] = test: Cytoprotective activity against H2O2- induced cell death in rat PC-12 cells assessed as increase in viable cells pretreated for 12 hrs followed by H2O2 challenge by MTT assay; type: functional, cell-based; conditions: dose 2.5-10 µM
# PC-12 [5] = test: Protection against 6-OHDA-induced ROS accumulation in rat PC-12 cells assessed as intracellular ROS level by measuring mean fluorescence intensity pretreated for 12 hrs followed by 6-OHDA challenge by DCFH-DA staining based flow cytometry; type: functional, cell-based; conditions: dose 2.5-10 µM
# PC-12 [6] = test: Protection against 6-OHDA-induced apoptosis in rat PC-12 cells assessed as necrotic cells at 10 uM pretreated for 12 hrs followed by 6-OHDA challenge by annexin V FITC/propidium iodide staining based flow cytometry (reference value: 3.7 %); type: functional
# PC-12 [7] = test: Protection against H2O2-induced apoptosis in rat PC-12 cells assessed as early apoptic cells at 5 uM pretreated for 12 hrs followed by H2O2 challenge by annexin V FITC/propidium iodide staining based flow cytometry (reference value: 2.2 %); type: functional
# [8] = biological target: T1, Nuclear factor erythroid 2-related factor 2 (Mus musculus); test: Activation of Nrf2 in mouse BV-2 cells assessed as upregulation of TrxR1 protein expression after 24 hrs by Western blot analysis; type: cell-based; conditions: filed as activator, dose 2.5-10 µM
# PC-12 [9] = test: Protection against 6-OHDA-induced apoptosis in rat PC-12 cells assessed as viable cells at 2.5 uM pretreated for 12 hrs followed by 6-OHDA challenge by annexin V FITC/propidium iodide staining based flow cytometry (reference value: 76.7 %); type: functional; conditions: read-out: Activity
# PC-12 [10] = test: Prevention of 6-OHDA-induced calcium overload in rat PC-12 cells assessed as reduction in intracellular free calcium pretreated with compound for 12 hrs followed by 6-OHDA challenge by Fluo-3AM based fluorescence assay; type: functional, cell-based; conditions: dose 2.5-10 µM
# [11] = biological target: T1, Nuclear factor erythroid 2-related factor 2 (Mus musculus); test: Activation of Nrf2 in mouse BV-2 cells assessed as upregulation of HO-1 protein expression after 24 hrs by Western blot analysis; type: cell-based; conditions: filed as activator, dose 2.5-10 µM
# PC-12 [12] = test: Protection against 6-OHDA-induced apoptosis in rat PC-12 cells assessed as early apoptotic cells at 5 uM pretreated for 12 hrs followed by 6-OHDA challenge by annexin V FITC/propidium iodide staining based flow cytometry (reference value: 2.4 %); type: functional
# [13] = biological target: T1, Nuclear factor erythroid 2-related factor 2 (Mus musculus); test: Activation of Nrf2 in mouse BV-2 cells assessed as upregulation of GCLC protein expression after 24 hrs by Western blot analysis; type: cell-based; conditions: filed as activator, dose 2.5-10 µM
# PC-12 [14] = test: Protection against H2O2-induced apoptosis in rat PC-12 cells assessed as early apoptic cells at 2.5 uM pretreated for 12 hrs followed by H2O2 challenge by annexin V FITC/propidium iodide staining based flow cytometry (reference value: 2.2 %); type: functional
# [15] = biological target: T1, Nuclear factor erythroid 2-related factor 2 (Mus musculus); test: Activation of Nrf2 in mouse BV-2 cells assessed as upregulation of NQO1 protein expression after 24 hrs by Western blot analysis; type: cell-based; conditions: filed as activator, dose 2.5-10 µM
# PC-12 [16] = test: Protection against H2O2-induced apoptosis in rat PC-12 cells assessed as necrotic cells at 10 uM pretreated for 12 hrs followed by H2O2 challenge by annexin V FITC/propidium iodide staining based flow cytometry (reference value: 3.7 %); type: functional
# PC-12 [17] = test: Protection against 6-OHDA-induced apoptosis in rat PC-12 cells assessed as viable cells at 10 uM pretreated for 12 hrs followed by 6-OHDA challenge by annexin V FITC/propidium iodide staining based flow cytometry (reference value: 76.7 %); type: functional; conditions: read-out: Activity
# PC-12 [18] = test: Protection against H2O2-induced apoptosis in rat PC-12 cells assessed as late apoptic cells at 2.5 uM pretreated for 12 hrs followed by H2O2 challenge by annexin V FITC/propidium iodide staining based flow cytometry (reference value: 20.8 %); type: functional
# PC-12 [19] = test: Protection against 6-OHDA-induced apoptosis in rat PC-12 cells assessed as late apoptotic cells at 5 uM pretreated for 12 hrs followed by 6-OHDA challenge by annexin V FITC/propidium iodide staining based flow cytometry (reference value: 17.3 %); type: functional
# PC-12 [20] = test: Cytoprotective activity against 6-OHDA induced cell death in rat PC-12 cells assessed as decrease in LDH release pretreated for 12 hrs followed by 6-OHDA challenge by LDH assay; type: functional, cell-based; conditions: dose 2.5-10 µM
# [21] = Binding affinity to N-Acetyl-L-cysteine assessed ascompound-NAC covalent adduct formation measured after 3 hrs by Q-TOF mass spectroscopy
# PC-12 [22] = test: Protection against 6-OHDA-induced apoptosis in rat PC-12 cells assessed as early apoptotic cells at 10 uM pretreated for 12 hrs followed by 6-OHDA challenge by annexin V FITC/propidium iodide staining based flow cytometry (reference value: 2.4 %); type: functional
# Beta-secretase 1 = Beta-secretase 1 (Homo sapiens, UniProt P56817); test: Inhibition of BACE-1 (unknown origin) using Mca-Ser-Glu-Val-Asn-Leu-Asp-Ala-Glu-Phe-Lys-Dnp-OH as substrate preincubated for 30 mins followed by substrate addition and measured after 1 hr by FRET assay
# Chain of Beta-secretase 1 (P56817 whole entry): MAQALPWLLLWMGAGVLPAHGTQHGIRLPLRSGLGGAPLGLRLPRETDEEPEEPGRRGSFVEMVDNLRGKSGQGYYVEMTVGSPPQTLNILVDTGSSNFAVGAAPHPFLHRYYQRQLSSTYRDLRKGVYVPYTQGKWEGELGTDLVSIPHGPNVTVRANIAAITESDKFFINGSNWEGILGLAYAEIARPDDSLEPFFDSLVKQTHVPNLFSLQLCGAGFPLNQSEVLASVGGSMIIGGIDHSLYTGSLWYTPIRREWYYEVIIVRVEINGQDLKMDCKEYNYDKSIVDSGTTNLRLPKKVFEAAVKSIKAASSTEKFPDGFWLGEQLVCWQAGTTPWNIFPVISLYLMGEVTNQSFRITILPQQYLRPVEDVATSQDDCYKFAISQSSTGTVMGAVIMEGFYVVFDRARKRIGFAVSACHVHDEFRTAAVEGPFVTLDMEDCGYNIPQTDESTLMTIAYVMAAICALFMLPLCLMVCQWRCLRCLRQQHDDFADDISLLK
# PC-12 [23] = test: Protection against H2O2-induced mitochondrial dysfunction in rat PC-12 cells assessed as change in mitochondrial membrane potential at 5 uM pretreated with compound for 12 hrs followed by H2O2 challenge by JC-1 staining based flow cytometry (reference value: 73 %); type: functional
# PC-12 [24] = test: Activation of Keap1-Nrf2-ARE pathway in rat PC-12 assessed as upregulation of TrxR1 protein expression measured after 12 hrs by Western blot analysis; conditions: filed as activator, dose 2.5-10 µM
structure (smiles),measurement,setting,value
CN1C(N)=N[C@](C)(c2cc(-n3[se]c4cc(F)ccc4c3=O)ccc2F)CS1(=O)=O,Activity,PC-12 [1],6.7%
same,Activity,[2],Active
same,Activity,PC-12 [3],Non-Toxic
same,Activity,PC-12 [4],Dose-Dependent Effect
same,Activity,PC-12 [5],Dose-Dependent Effect
same,Activity,PC-12 [6],1.4%
same,Activity,PC-12 [7],1.6%
same,Activity,[8],Dose-Dependent Effect
same,viability at 2.5 µM,PC-12 [9],79.8%
same,Activity,PC-12 [10],Dose-Dependent Effect
same,Activity,[11],Dose-Dependent Effect
same,Activity,PC-12 [12],2.5%
same,Activity,[13],Dose-Dependent Effect
same,Activity,PC-12 [14],2%
same,Activity,[15],Dose-Dependent Effect
same,Activity,PC-12 [16],0.6%
same,viability at 10 µM,PC-12 [17],90.5%
same,Activity,PC-12 [18],12.3%
same,Activity,PC-12 [19],11.8%
same,Activity,PC-12 [20],Dose-Dependent Effect
same,Activity,[21],Active
same,Activity,PC-12 [22],1.4%
same,IC50,Beta-secretase 1,1060 nM
same,Activity,PC-12 [23],85.9%
same,Activity,PC-12 [24],Active
